From article doi:10.1101/2024.08.25.609621 (bioRxiv, 2024)
pIC50, pKi: −log10 of the molar value. Where two headings read alike, the source gives them in different places.

Biological target: SARS-CoV-2 NSP3 macrodomain (Mac1) (Severe acute respiratory syndrome coronavirus 2, UniProt P0DTD1)
Test: biochemical
Assay type: binding
Conditions: for pKi: read-out: SARS CoV-2 macrodomain HTRF assay: Ki; for Ligand efficiency (binding enery per heavy atom): from SARS CoV-2 macrodomain HTRF assay
[1] = Dose-response, SARS CoV-2 macrodomain HTRF assay, read-out: IC50
[2] = Single dose, 200 μM, mean of three technical replicates
[3] = Single dose, concentration 200 μM, read-out: Average % competition
[4] = preliminary screen, compound at 200 μM, mean of 3-4 technical replicates, read-out: % competition in HTRF assay
[5] = Single dose, concentration 200 μM, read-out: SARS CoV-2 macrodomain HTRF assay: Average % competition
[6] = dose-response, read-out: SARS CoV-2 macrodomain HTRF assay: IC50

Structure (SMILES): CC1c2ccsc2CCN1C(=O)Cc1csc(-c2ccccc2)n1 (stereo not drawn) [AVI-287]
- Average % competition: 0%

Structure (SMILES): O=C1COc2cc(C(=O)N3CC(C(=O)O)c4ccccc43)ccc2N1 (stereo not drawn) [AVI-289]
- pIC50 [1]: < 3.00
- Average % competition [2]: 21%

Structure (SMILES): Cc1nc2cc(NC(=O)C3CC(=O)Nc4ccccc43)ccc2o1 (stereo not drawn) [AVI-292]
- Average % competition: 0%

Structure (SMILES): Cc1ncc(CN(C)C(=O)c2cccc(N)c2F)s1 [AVI-293]
- pIC50 [1]: < 3.00
- Average % competition [2]: 14%

Structure (SMILES): CC1CN(C(=O)c2ccccc2S(C)(=O)=O)c2cccnc2O1 (stereo not drawn) [AVI-294]
- Average % competition: 13%

Structure (SMILES): CCCC1CCCC1C(=O)N[C@H]1CCc2nc(N)sc2C1 (stereo partly drawn) [AVI-298]
- Average % competition: <10%

Structure (SMILES): CC(=O)Nc1ccc(S(=O)(=O)CCCN2C(=O)CC(C)(C(C)C)C2=O)cc1 (stereo not drawn) [AVI-299]
- Average % competition: 19%

Structure (SMILES): O=C(NCCCN1C(=O)NC2(CCCC2)C1=O)c1ccc(O)nc1 [AVI-300]
- Average % competition: 8%

Structure (SMILES): Cc1ccc2c(c1)C(=O)N(CCC(=O)Nc1cnc3c(c1)c(C)nn3C)C2=O [AVI-301]
- Average % competition: 16%

Structure (SMILES): Cc1nnc2n1CCN(C(=O)CN1C(=O)CCOc3ccccc31)C2 [AVI-302]
- Average % competition: 0%

Structure (SMILES): CC(OC(=O)c1ccc2nc(N)sc2c1)C(=O)N1CCCCCC1 (stereo not drawn) [AVI-304]
- Average % competition: 0%

Structure (SMILES): CNC(=O)c1ccc(NC(=O)C2CC(=O)Nc3ccccc32)cc1 (stereo not drawn) [AVI-305]
- Average % competition: 0%

Structure (SMILES): Cc1nc(-c2cccc(NC(=O)NCc3cccs3)c2)n[nH]1 [AVI-306]
- pIC50 [1]: < 3.00
- Average % competition [2]: 20%

Structure (SMILES): O=C1CC(C(=O)Nc2nc3c(s2)CCCC3)c2ccccc2N1 (stereo not drawn) [AVI-307]
- Average % competition: 0%

Structure (SMILES): c1ccn2c(Sc3ncnc4ccsc34)nnc2c1 [AVI-308]
- Average % competition: 0%

Structure (SMILES): CNS(=O)(=O)c1cc(C(=O)N2CCOc3ccccc32)n(C)c1 [AVI-309]
- Average % competition: 0%

Structure (SMILES): Cc1ccc(O)c(C(=O)c2cnn3c(N)nnc3c2)c1 [AVI-310]
- Average % competition: 0%

Structure (SMILES): Nc1ccc(F)c(C(=O)NCc2cnc(O)nc2O)c1F [AVI-312]
- Average % competition: <10%

Structure (SMILES): O=C(O)C1CN(C(=O)c2cccc3[nH]ccc23)c2ccccc21 (stereo not drawn) [AVI-314]
- pIC50 [1]: < 3.00
- Average % competition [2]: 32%

Structure (SMILES): CC(=O)Nc1ccc(NC(=O)CSc2nnnn2C2CCCC2)cc1 [AVI-315]
- Average % competition: 0%

Structure (SMILES): O=C(c1cc(C2CCCCC2)[nH]n1)N1CCCC(O)(C(F)(F)F)CC1 (stereo not drawn) [AVI-318]
- Average % competition: 13%

Structure (SMILES): O=C(O)C1CN(C(=O)c2ccc3[nH]nnc3c2)c2ccccc21 (stereo not drawn) [AVI-319]
- Average % competition: 25%

Structure (SMILES): Cc1ccc(C)c(CN2C(=O)NC(C)(Cc3ccc4c(c3)OCO4)C2=O)c1 (stereo not drawn) [AVI-320]
- Average % competition: 18%

Structure (SMILES): Cc1noc(NCc2cc3ccccc3nc2O)n1 [AVI-322]
- Average % competition: 0%

Structure (SMILES): O=C(O)C1CN(C(=O)c2ccc3c(c2)OCCO3)CCO1 (stereo not drawn) [AVI-323]
- Average % competition: 7%

Structure (SMILES): Nc1ncnc(N2CCC(C(F)(F)F)C3(CCC3)C2)c1Cl (stereo not drawn) [AVI-324]
- Average % competition: <10%

Structure (SMILES): CCOc1ccc(-c2nc(CC(=O)N3CCn4cccc4C3C)cs2)cc1 (stereo not drawn) [AVI-325]
- Average % competition: 0%

Structure (SMILES): O=C(O)C1CCc2nnc(-c3ccc(F)cc3)n2C1 (stereo not drawn) [AVI-326]
- Average % competition: 15%

Structure (SMILES): Cc1nn(C)c2sc(C(=O)N3CC(C(=O)O)c4ccccc43)cc12 (stereo not drawn) [AVI-327]
- Average % competition: 0%

Structure (SMILES): NC(=O)N1CCC[C@H]1C(=O)Nc1ccc2ncnn2c1 [AVI-330]
- Average % competition: 14%

Structure (SMILES): Nc1ncnc2sc3c(c12)CCN(C(=O)[C@H]1CC=CCC1)C3 [AVI-331]
- Average % competition: <10%

Structure (SMILES): N#Cc1cnc(CSc2nc(-c3ccccc3)co2)nc1N [AVI-332]
- Average % competition: <10%

Structure (SMILES): O=C(O)c1ccc2c(c1)C(NC(=O)C1CCn3ncnc3C1)CCC2 (stereo not drawn) [AVI-333]
- Average % competition: 21%

Structure (SMILES): CC1CCCC1OC(=O)Cn1cnc2c1c(=O)n(C)c(=O)n2C (stereo not drawn) [AVI-335]
- Average % competition: <10%

Structure (SMILES): Cc1ccc(N2CCN(c3ncnc(-c4ccccc4)n3)CC2=O)cc1 [AVI-336]
- Average % competition: <10%

Structure (SMILES): CC(C(=O)NCc1c(C(=O)O)[nH]c2ccccc12)n1cncn1 (stereo not drawn) [AVI-337]
- Average % competition: 14%

Structure (SMILES): Nc1cc(N2CCC3CCCCC3C2)ncn1 (stereo not drawn) [AVI-339]
- pIC50 [1]: < 3.00
- Average % competition [2]: <10%

Structure (SMILES): CC1(c2ccc(F)cc2)CN(C(=O)c2cnc(N)nc2C(F)(F)F)C1 [AVI-340]
- Average % competition: 20%

Structure (SMILES): Cn1ccc2cc(NC(=O)C3CC(=O)NC4CCCCC43)ccc21 (stereo not drawn) [AVI-342]
- Average % competition: <10%

Structure (SMILES): Cc1nc(N)ncc1C(=O)NCC(O)Cc1ccc(Cl)cc1 (stereo not drawn) [AVI-343]
- Average % competition: <10%

Structure (SMILES): COc1ccc(-c2nccc(N3CCC(c4ccsc4)CC3)n2)cc1 [AVI-344]
- Average % competition: <10%

Structure (SMILES): O=c1[nH]c2ccccc2cc1CNc1nc(C2CC2)ns1 [AVI-346]
- pIC50 [1]: < 3.00
- Average % competition [2]: <10%

Structure (SMILES): Cc1ccc(CC(=O)N2CCSC23CC(C(=O)O)C3)cc1O (stereo not drawn) [AVI-347]
- Average % competition: <10%

Structure (SMILES): CC(NC(=O)c1ccc(N)nc1Cl)C(O)c1cccc(F)c1 (stereo not drawn) [AVI-349]
- Average % competition: 15%

Structure (SMILES): O[C@@]1(Cn2ccnn2)CCCN(c2ncnc3[nH]ccc23)C1 [AVI-608]
- inhibition at 200 µM [3]: 8%
- inhibition at 200 µM [4]: < 10%

Structure (SMILES): O[C@@H]1CNCC[C@H]1Nc1ncnc2[nH]ccc12 [AVI-613]
- inhibition at 200 µM [3]: < 10%
- inhibition at 200 µM [4]: < 10%

Structure (SMILES): CN(C)C[C@@]1(O)CCCN(c2ncnc3[nH]ccc23)C1 [AVI-614]
- inhibition at 200 µM [3]: < 10%
- inhibition at 200 µM [4]: < 10%

Structure (SMILES): O[C@H]1CNCC[C@@H]1Nc1ncnc2[nH]ccc12 [AVI-615]
- inhibition at 200 µM [5]: < 10%
- inhibition at 200 µM [4]: < 10%

Structure (SMILES): O=C(O)C(F)(F)F.OC1c2ccccc2CC1Nc1ncnc2[nH]ccc12 (stereo not drawn) [AVI-3634]
- inhibition at 200 µM [3]: < 10%
- inhibition at 200 µM [4]: < 10%

Structure (SMILES): O=C(O)C(F)(F)F.OCC(Nc1ncnc2[nH]ccc12)C1CCCO1 (stereo not drawn) [AVI-3645]
- inhibition at 200 µM [3]: 54%
- inhibition at 200 µM [4]: 54%

Structure (SMILES): O=C(O)C(F)(F)F.OC[C@@H](CCc1ccccc1)Nc1ncnc2[nH]ccc12 [AVI-3654]
- inhibition at 200 µM [3]: 27%
- inhibition at 200 µM [4]: 27%

Structure (SMILES): CC(C)CCC(CO)Nc1ncnc2[nH]ccc12.O=C(O)C(F)(F)F (stereo not drawn) [AVI-3668]
- inhibition at 200 µM [3]: 38%
- inhibition at 200 µM [4]: 38%

Structure (SMILES): O=[N+]([O-])c1ccc(C(O)C(CO)Nc2ncnc3[nH]ccc23)cc1 (stereo not drawn) [AVI-3672]
- inhibition at 200 µM [3]: 43%
- inhibition at 200 µM [4]: 43%

Structure (SMILES): O=C(O)C(F)(F)F.OCC(CC1CCOCC1)Nc1ncnc2[nH]ccc12 (stereo not drawn) [AVI-3676]
- inhibition at 200 µM [3]: < 10%
- inhibition at 200 µM [4]: < 10%

Structure (SMILES): O=C(O)C(F)(F)F.OCC(Nc1ncnc2[nH]ccc12)C(O)C1CCCCC1 (stereo not drawn) [AVI-3687]
- inhibition at 200 µM [3]: 33%
- inhibition at 200 µM [4]: 33%

Structure (SMILES): O=C(O)C(F)(F)F.OCC(Cc1cccc(F)c1)Nc1ncnc2[nH]ccc12 (stereo not drawn) [AVI-3706]
- inhibition at 200 µM [3]: 77%
- inhibition at 200 µM [4]: 77%

Structure (SMILES): O=C(O)C(F)(F)F.OCC1C2C=CC(C2)N1c1ncnc2[nH]ccc12 (stereo not drawn) [AVI-3712]
- inhibition at 200 µM [5]: 55%
- inhibition at 200 µM [4]: 55%

Structure (SMILES): CC(C)(C)C(O)CC(CO)Nc1ncnc2[nH]ccc12.O=C(O)C(F)(F)F (stereo not drawn) [AVI-3714]
- inhibition at 200 µM [3]: < 10%
- inhibition at 200 µM [4]: < 10%

Structure (SMILES): OCC1CCC2(CCOCC2)CN1c1ncnc2[nH]ccc12 (stereo not drawn) [AVI-4065]
- pIC50 [6]: 3.37
- pKi (dose-response): 3.40
- Ligand efficiency (binding enery per heavy atom): 0.21

Structure (SMILES): CC1(C)CCC(O)(CNc2ncnc3[nH]ccc23)CC1 [AVI-4310]
- pIC50 [6]: 4.12
- pKi (dose-response): 4.15
- Ligand efficiency (binding enery per heavy atom): 0.29
